Set-up: species or system male C57BL/6 mice
Settings: mouse, in vivo

Visible abnormality: No visible abnormality
Structure (SMILES): CCCCCCCCCCCCCCCCCCN1/C(=C/C=C/C=C/C=C/C2=[N+](CCCCCCCCCCCCCCCCCC)c3ccccc3C2(C)C)C(C)(C)c2ccccc21.[I-] [free DiR, 1,1-dioctadecyl-3,3,3′,3′-tetramethylindotricarbocyanine-iodide]
